Data from article PMC12040169 (PLOS Biology, 2025).

experiment: in vitro; details: human, hela cells, % viability

Row | SMILES | viability at 28.5 h, 10 µM
1 | CC(O)Cc1nnc(SCC(=O)c2ccc([N+](=O)[O-])cc2)n1-c1ccccc1 (centres unmarked) [CBK267389] | 81.1%
2 | COc1nc(SC)nc2[nH]ccc12 [CBK085861] | 95%
3 | CCN(CC(=O)N1CCN(C)CC1)S(=O)(=O)c1ccc(OC)cc1 [CBK269374] | 89.2%
4 | O=C(O)c1ccccc1C1SCCCS1 [CBK016303] | 91.4%
5 | CC(=O)c1ccc(-c2ccc3ccc(N)nc3n2)cc1 [CBK061862] | 84.4%
6 | FC(F)(F)c1ccc(CN2CCN(c3nccnc3OCc3cccnc3)CC2)cc1 [CBK083133T] | 101%
7 | O[C@@H]1CN(Cc2ccc(F)c(F)c2)CC[C@H]1NC1CC1 [CBK283319] | 94%
8 | COc1cc(C)c(NC(=O)c2cnc(-c3ccc(F)cc3)c(-c3ccncc3)c2)cc1OC [CBK036575] | 97.5%
9 | CC(C)[C@H](CO)Nc1nc(-c2ccco2)cn2ccnc12 [CBK066316] | 103%
10 | CN1CCN(CCOC(=O)N2CCC(C(F)(F)F)CC2)CC1 [CBK200206] | 103%
11 | NC(=O)CS(=O)(=O)c1ccc(Cl)cc1 [CBK026373] | 95.7%
12 | OCC1(CNc2ncc(F)c(N3CCCC3)n2)CCCC1 [CBK307397] | 103%
13 | O=C(Nc1nnc(C2CCCCC2)s1)c1ccccc1I [CBK057918] | 114%
14 | CC(=O)NC(c1ccccn1)C1CCCN(C(=O)C(C)C)C1 (centres unmarked) [CBK285030] | 111%
15 | O=S(=O)(c1cccc(C(F)(F)F)c1)n1ccc2c(CN3CCCC3)cccc21 [CBK116168T] | 111%
16 | CC(C)(C)c1nnc(NS(=O)(=O)c2ccc([N+](=O)[O-])cc2)s1 [CBK045500] | 93.3%
17 | CCc1ccc(NC(=O)CNc2cc(C)ccc2OC)cc1 [CBK297553] | 107%
18 | CCOc1ccc(CNc2ccc(C3c4ccsc4CCN3C(C)=O)cc2)cc1 (centres unmarked) [CBK286451] | 96.3%
19 | O=C(CCN1CCN(C(c2ccccc2)c2ccccc2)CC1)c1ccccc1 [CBK074788] | 111%
20 | CCOc1ccc(OC(=O)C2CCN(C(=O)CC(C)C)CC2)cc1 [CBK154228] | 95.3%
21 | O=C(Nc1nnc(-c2cccs2)o1)c1ccc(Cl)cc1 [CBK287600] | 96.4%
22 | COc1cccc(C2CC(c3cccc(Cl)c3)n3nc(N)nc3N2)c1 (centres unmarked) [CBK293966] | 85.1%

Row | SMILES | viability at 28.5 h, 10 µM
23 | Cc1cnn(CC2CC2)c1NC(=O)Cc1csc(N2CCCC2=O)n1 [CBK304940] | 92.4%
24 | Cc1nn(C(C)C)c(C)c1CN1CCN(C2CCCCC2)C(=O)C1 [CBK282562] | 109%
25 | CC(C)(C)c1cn2c3ccccc3nc2n1CCO [CBK273412] | 102%
26 | O=C(O)c1[nH]n(-c2ccc(Cl)cc2)c(=O)c1CCO [CBK287079] | 101%
27 | Oc1ccc(Br)cc1/C=N/c1ccc(-c2cc(-c3ccc(/N=C/c4cc(Br)ccc4O)cc3)ncn2)cc1 [CBK261630] | 115%
28 | O=C(O)COc1cccc(NS(=O)(=O)c2ccc(Br)cc2)c1 [CBK286911] | 111%
29 | CCn1c(=O)oc2cc(NC(=O)NCCCc3csc(N)n3)ccc21 [CBK307633] | 79.7%
30 | Nc1ncncc1-c1noc([C@@H]2CCCN2c2ncccn2)n1 [CBK288901] | 111%
31 | Cc1cc(C[C@@H]2CCC[C@H]2NCc2nc3ccccc3[nH]2)on1 [CBK284935] | 87.3%
32 | CC(NC(=O)N(Cc1ccc(-c2ccccc2)cc1)CC(C)(C)CN)c1cccc2ccccc12 (centres unmarked) [CBK002426C] | 50.9%
33 | C[C@H](Cn1nc2c(cc1=O)CCCCC2)NC(=O)Cc1cccs1 [CBK284548] | 100%
34 | Oc1ccc(CN2CCN(Cc3ccc(Br)s3)CC2)c2cccnc12 [CBK295645] | 89.5%
35 | O=C(CCc1cccnc1)N1CCC(F)CC1 [CBK200275] | 103%
36 | Cc1ncsc1CCOc1ncccc1C(F)(F)F [CBK115781] | 92.2%
37 | N#Cc1c(C(F)(F)F)cc(-c2ccccc2)nc1SCCC(=O)Nc1ccccc1O [CBK268191] | 103%
38 | Cc1cc(C(=O)N2CCN3C(=O)CCC32C)c(C2CC2)o1 (centres unmarked) [CBK282092] | 97.6%
39 | COc1cc(CN2CCN(c3cc(C)ccc3C)CC2)ccc1OCc1ccccc1 [CBK261898] | 86.6%
40 | CC(=O)Nc1ccc(N2C(=O)c3ccc(S(=O)(=O)c4ccc5c(c4)C(=O)N(c4ccc(NC(C)=O)cc4)C5=O)cc3C2=O)cc1 [CBK262105] | 77.8%
41 | O=C(O)C1CCCCC1C(=O)Nc1ccc(S(=O)(=O)N2CCCCC2)cc1 (centres unmarked) [CBK267950] | 109%
42 | CC(=O)Nc1ccc(C(=O)Nc2ccc(S(N)(=O)=O)cc2)cc1 [CBK261600] | 95.3%
43 | CCn1c2ccccc2c2cc(CN3CCN(Cc4cc(OC)cc(OC)c4)CC3)ccc21 [CBK263164] | 95.9%
44 | CCC1=NC(c2ccccc2Cl)N(O)C1(C)C (centres unmarked) [CBK026466] | 97.5%
